From patent publication US7557110B2, “Pyrazolo[1,5-A] pyrimidine derivatives” (Teijin Pharma Limited, priority 2003, dated 2009)
Read-outs that look alike come from different tables or passages of the source.

Key:
MAPKAP-K2 = MAPKAP-K2 (Homo sapiens, UniProt P49137); assay: MAPKAP-K2 enzyme activity inhibition (33P-ATP filter plate kinase assay); assay type: biochemical; details: MAPKAP-K2 inhibitory activity; assays conducted at typically 1-100 μM; also: key: +: active; ++: more active; +++: very active
Method: [General Procedure for Measurement of MAPKAP-K2 Enzyme Activity Inhibition]
After conducting the reaction for 30 minutes at room temperature, an equivalent volume of a 200 mM phosphoric acid solution was added to suspend the reaction, and 90 μL of the reaction product was adsorbed onto a MultiScreen PH plate (Millipore) and rinsed with a 100 mM phosphoric acid solution. After drying the plate, 30 μL of MicroScint-O (Packard BioScience) was added, and the cpm was measured with a scintillation counter to determine the inhibiting activity. Substrate peptide is […]

CDK-2 = CDK-2 (Homo sapiens, UniProt P24941); assay: CDK-2 enzyme activity inhibition (33P-ATP filter plate kinase assay); assay type: biochemical
Source text: [General Procedure for Measurement of CDK-2 Enzyme Activity Inhibition]

[1] = read-out: CDK-2 inhibition IC50

Chain of MAPKAP-K2 (P49137 whole entry): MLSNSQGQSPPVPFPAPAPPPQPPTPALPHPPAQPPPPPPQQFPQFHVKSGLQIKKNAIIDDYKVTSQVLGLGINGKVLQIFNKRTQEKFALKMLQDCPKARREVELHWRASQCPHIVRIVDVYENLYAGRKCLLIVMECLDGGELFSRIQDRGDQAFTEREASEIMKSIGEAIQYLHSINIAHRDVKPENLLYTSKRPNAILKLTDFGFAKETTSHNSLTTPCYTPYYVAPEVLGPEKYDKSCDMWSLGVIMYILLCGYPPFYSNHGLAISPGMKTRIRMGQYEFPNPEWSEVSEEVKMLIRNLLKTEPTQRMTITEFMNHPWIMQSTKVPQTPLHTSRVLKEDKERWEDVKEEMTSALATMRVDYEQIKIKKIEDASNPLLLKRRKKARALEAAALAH

SMILES | activity (efficacy against MAPKAP-K2) (MAPKAP-K2) | IC50 (CDK-2; [1]) [µM] | IC50 (CDK-2) [µM]
CCc1c(N[C@H]2CC[C@H](N)CC2)nc2ccnn2c1Nc1ccccc1OC [Compound 42] | ++ | < 100 | 
N[C@H]1CC[C@H](Nc2cc(Nc3ccccc3Cl)n3ncc(I)c3n2)CC1 [Compound 47] | ++ | < 100 | 
CCc1c(NC2CCCNC2)nc2ccnn2c1Nc1ccc(Oc2ccc(C)cc2)cc1 (stereo not shown) [Compound 63] | +++ | < 100 | 
CCOc1ccc(Nc2cc(N[C@H]3CC[C@H](N)CC3)nc3c(C#N)cnn23)cc1 [Compound 64] | +++ | < 100 | 
CCOC(=O)c1cccc(Nc2c(C)c(N[C@H]3CC[C@H](N)CC3)nc3ccnn23)c1 [Compound 68] | +++ | < 100 | 
CCOC(=O)c1ccc(Nc2c(CC)c(N[C@H]3CC[C@H](N)CC3)nc3ccnn23)cc1 [Compound 70] | +++ | < 100 | 
CCc1c(N[C@H]2CC[C@H](N)CC2)nc2ccnn2c1Nc1cccc(C)c1 [Compound 72] | +++ | < 100 | 
CCc1c(N[C@H]2CC[C@H](N)CC2)nc2ccnn2c1Nc1cccc(OCc2ccccc2)c1 [Compound 74] | ++ | < 100 | 
CCOc1cccc(Nc2c(C)c(N[C@H]3CC[C@H](N)CC3)nc3ccnn23)c1 [Compound 81] | +++ | < 100 | 
CCCNc1c(C)c(N[C@H]2CC[C@H](N)CC2)nc2ccnn12 [Compound 87] | ++ | < 100 | 
Cc1ccc(Nc2c(C)c(NC3CCCNC3)nc3ccnn23)cc1C (stereo not shown) [Compound 89] | +++ | < 100 | 
COc1cccc(Nc2c(C)c(N[C@H]3CC[C@H](N)CC3)nc3ccnn23)c1 [Compound 91] | ++ | < 100 | 
Cc1c(NC2CCCNC2)nc2ccnn2c1Nc1ccc(I)cc1 (stereo not shown) [Compound 105] | +++ | < 100 | 
CCOc1ccc(Nc2c(C(C)C)c(N[C@H]3CC[C@H](N)CC3)nc3ccnn23)cc1 [Compound 114] | +++ | < 100 | 
CCc1c(N[C@H]2CC[C@H](N)CC2)nc2ccnn2c1Nc1ccc(N2CCCC2=O)cc1 [Compound 125] | ++ | < 100 | 
Cc1c(N[C@H]2CC[C@H](N)CC2)nc2ccnn2c1Nc1ccc2cn[nH]c2c1 [Compound 131] | +++ | < 100 | 
CCOC(=O)c1ccc(Nc2c(CC)c(N[C@H]3CC[C@H](N)CC3)nc3ccnn23)cc1Cl [Compound 137] | +++ | < 100 | 
CCOc1ccc(Nc2c(-c3ccc(OC)cc3)c(N[C@H]3CC[C@H](N)CC3)nc3ccnn23)cc1 [Compound 140] | +++ | < 100 | 
Cc1c(NC2CCCNC2)nc2ccnn2c1Nc1ccccc1F (stereo not shown) [Compound 156] | +++ | < 100 | 
CCc1c(NC2CCCNC2)nc2ccnn2c1Nc1ccc(Br)cc1 (stereo not shown) [Compound 160] | ++ | < 100 | 
N#Cc1cnn2c(Nc3ccccc3Cl)cc(N[C@H]3CC[C@H](N)CC3)nc12 [Compound 170] | +++ | < 100 | 
COc1c(N[C@H]2CC[C@H](N)CC2)nc2ccnn2c1Nc1ccc(F)c(Cl)c1 [Compound 172] | ++ | < 100 | 
CCOc1ccc(Nc2c(OC)c(NC3CCCNC3)nc3ccnn23)cc1 (stereo not shown) [Compound 173] | +++ | < 100 | 
Cc1c(N[C@H]2CC[C@H](N)CC2)nc2ccnn2c1Nc1ccc(OCc2ccccc2)cc1 [Compound 176] | +++ | < 100 | 
Cc1c(N[C@H]2CC[C@H](N)CC2)nc2ccnn2c1Nc1ccc(OC(F)(F)F)cc1 [Compound 179] | +++ | < 100 | 
Cc1c(NC2CCCNC2)nc2ccnn2c1Nc1ccc(F)c(Cl)c1 (stereo not shown) [Compound 191] | +++ |  | < 100
Cc1c(N[C@H]2CC[C@H](N)CC2)nc2ccnn2c1Nc1ccc(O)cc1 [Compound 196] | +++ | < 100 | 
Cc1c(N[C@H]2CC[C@H](N)CC2)nc2ccnn2c1Nc1ccc(OC(C)C)cc1 [Compound 197, {5-[(trans-4-aminocyclohexyl)amino]-6-methyl(pyrazolo[1,5-a]pyrimidin-7-yl)}[4-(methylethoxy)phenyl]amine] | +++ | < 100 | 

The next lines start with the values.

activity (efficacy against MAPKAP-K2) (MAPKAP-K2) | IC50 (CDK-2; [1]) [µM] | IC50 (CDK-2) [µM] | SMILES
+++ | < 100 |  | Cc1c(N[C@H]2CC[C@H](N)CC2)nc2ccnn2c1Nc1ccc(OCCCl)cc1 [Compound 199]
+++ | < 100 |  | CCCOc1ccc(Nc2c(C)c(N[C@H]3CC[C@H](N)CC3)nc3ccnn23)cc1 [Compound 201]
+++ | < 100 |  | Cc1c(N[C@H]2CC[C@H](N)CC2)nc2ccnn2c1Nc1ccc(OC2CCCCC2)cc1 [Compound 202]
+++ | < 100 |  | COc1ccc(Nc2c(C)c(N[C@H]3CC[C@H](N)CC3)nc3ccnn23)cc1 [Compound 203]
++ | < 100 |  | Cc1c(N[C@H]2CC[C@H](N)CC2)nc2ccnn2c1Nc1ccc(OCc2ccc(N)cc2)cc1 [Compound 204]
+++ | < 100 |  | Cc1c(N[C@H]2CC[C@H](N)CC2)nc2ccnn2c1Nc1ccc(OCc2ccc(Cl)cc2)cc1 [Compound 211]
+++ | < 100 |  | Cc1c(N[C@H]2CC[C@H](N)CC2)nc2ccnn2c1Nc1ccc(OCc2ccccc2Cl)cc1 [Compound 213]
++ | < 100 |  | Cc1c(N[C@H]2CC[C@H](N)CC2)nc2ccnn2c1Nc1ccc(OCCC2CCCCC2)cc1 [Compound 215]
+++ | < 100 |  | Cc1c(N[C@H]2CC[C@H](N)CC2)nc2ccnn2c1Nc1ccc(OC2CCCC2)cc1 [Compound 216]
++ | < 100 |  | Cc1c(N[C@H]2CC[C@H](N)CC2)nc2ccnn2c1Nc1ccc(OC2CCN(C)CC2)cc1 [Compound 217]
+++ | < 100 |  | Cc1c(N[C@H]2CC[C@H](N)CC2)nc2ccnn2c1Nc1ccc(OC2CCOCC2)cc1 [Compound 219]
+++ | < 100 |  | Cc1c(N[C@H]2CC[C@H](N)CC2)nc2ccnn2c1Nc1ccc(OCCN2CCOCC2)cc1 [Compound 221]
+++ | < 100 |  | Cc1c(N[C@H]2CC[C@H](N)CC2)nc2ccnn2c1Nc1ccc(OCc2cccnc2)cc1 [Compound 222]
+++ | < 100 |  | Cc1c(N[C@H]2CC[C@H](N)CC2)nc2ccnn2c1Nc1ccc(OCCN2CCCCC2)cc1 [Compound 223]
+++ | < 100 |  | Cc1c(N[C@H]2CC[C@H](N)CC2)nc2ccnn2c1Nc1ccc(OCc2ccccn2)cc1 [Compound 224]
+++ | < 100 |  | Cc1c(N[C@H]2CC[C@H](N)CC2)nc2ccnn2c1Nc1ccc(OCCc2ccccn2)cc1 [Compound 225]
+++ | < 100 |  | Cc1c(NC2CCC(N)CC2)nc2ccnn2c1Nc1ccc(OCC2CCCN(C)C2)cc1 (stereo not shown) [Compound 226]
+++ | < 100 |  | Cc1c(N[C@H]2CC[C@H](N)CC2)nc2ccnn2c1Nc1ccc(OCCc2ccncc2)cc1 [Compound 228]
+++ | < 100 |  | Cc1c(NC2CCC(N)CC2)nc2ccnn2c1Nc1ccc(OC2CCNC2)cc1 (stereo not shown) [Compound 229]
++ | < 100 |  | Cc1c(NC2CCC(N)CC2)nc2ccnn2c1Nc1ccc(OCCC2CCCCN2)cc1 (stereo not shown) [Compound 231]
++ | < 100 |  | Cc1c(N[C@H]2CC[C@H](N)CC2)nc2ccnn2c1Nc1ccc(OCC2CCCCC2)cc1 [Compound 237]
++ | < 100 |  | Cc1c(N[C@H]2CC[C@H](N)CC2)nc2ccnn2c1Nc1cccc(OCc2ccccc2)c1 [Compound 243]
++ | < 100 |  | Cc1c(N[C@H]2CC[C@H](N)CC2)nc2ccnn2c1Nc1cccc(OCc2cccc(Cl)c2)c1 [Compound 247]
++ | < 100 |  | Cc1c(N[C@H]2CC[C@H](N)CC2)nc2ccnn2c1Nc1cccc(OCc2ccc(Cl)cc2)c1 [Compound 248]
+++ | < 100 |  | Cc1c(NC2CCC(N)CC2)nc2ccnn2c1Nc1ccc(OCC2CCCCN2)cc1 (stereo not shown) [Compound 251]
+++ | < 100 |  | Cc1c(NC2CCC(N)CC2)nc2ccnn2c1Nc1ccc(OCC2CCCO2)cc1 (stereo not shown) [Compound 256]
++ | < 100 |  | Cc1c(N[C@H]2CC[C@H](N)CC2)nc2ccnn2c1Nc1cccc(OCc2cccnc2)c1 [Compound 274]
+++ | < 100 |  | Cc1c(N[C@H]2CC[C@H](N)CC2)nc2ccnn2c1Nc1ccc(-c2ccccc2)cc1 [Compound 284, {5-[(trans-4-aminocyclohexyl)amino]-6-methyl(pyrazolo[1,5-a]pyrimidin-7-yl)}(4-phenylphenyl)amine]
